Laboratory results as given in patent US8003658B2, “Quinazoline derivatives for inhibiting cancer cell growth and method for the preparation thereof” (Hanmi Holdings Co., Ltd., priority 2004, dated 2011).
Where two headings read alike, the source gives them in different places.

Experiments:
SK-Br3 (ATCC: HTB-30) = assay: Test of cancer cell growth inhibition (SRB), SK-Br3; details: read-out: IC50 SK-Br-3
A431 (ATCC: CRL-1555) = assay: Test of cancer cell growth inhibition (SRB), A431; details: read-out: IC50 A431
[1] = Erb-B2 overexpressed SK-Br3, 72 hours, SRB
[2] = EGFR overexpressed A431, 72 hours, SRB

| SMILES | IC50 (SK-Br3 (ATCC: HTB-30); Homo sapiens, SK-BR-3, 72 h) [nM] | IC50 (A431 (ATCC: CRL-1555); Homo sapiens, A-431, 72 h) [nM] | IC50 (SK-Br3 (ATCC: HTB-30); [1]) [nM] | IC50 (A431 (ATCC: CRL-1555); [2]) [nM] |
| --- | --- | --- | --- | --- |
| CS(=O)(=O)CCNCC(=O)NCCCC(=O)Nc1ccc2ncnc(Nc3ccc(OCc4cccc(F)c4)c(Cl)c3)c2c1 [Example 107, N-{4-[3-chloro-4-(3-fluoro-benzyloxy)-phenylamino]-quinazolin-6-yl}-4-[2-(2-methanesulfonyl-ethylamino)-acetylamino]-butyramide] | 51 | 641 | – | – |
| CC(C)(C)OC(=O)NCCCCC(=O)Nc1ccc2ncnc(Nc3ccc(OCc4cccc(F)c4)c(Cl)c3)c2c1 [Example 114, (4-{4-[3-chloro-4-(3-fluoro-benzyloxy)-phenylamino]-quinazolin-6-ylcarbamoyl}-butyl)-carbamic acid t-butylester] | 216 | 136 | – | – |
| C[S+]([O-])CC(=O)NCCC(=O)Nc1ccc2ncnc(Nc3ccc(OCc4cccc(F)c4)c(Cl)c3)c2c1 (stereo not shown) [Example 118, N-{4-[3-chloro-4-(3-fluoro-benzyloxy)-phenylamino]-quinazolin-6-yl}-3-(2-methanesulfinyl-acetylamino)-propionamide] | 161 | 735 | – | – |
| O=C(CCNC(=O)C(F)(F)F)Nc1ccc2ncnc(Nc3ccc(OCc4cccc(F)c4)c(Cl)c3)c2c1 [Example 119, N-{4-[3-chloro-4-(3-fluoro-benzyloxy)-phenylamino]-quinazolin-6-yl}-3-(2,2,2-trifluoro-acetylamino)-propionamide] | 69 | 161 | – | – |
| CC(=O)OCC(=O)NCCC(=O)Nc1ccc2ncnc(Nc3ccc(OCc4cccc(F)c4)c(Cl)c3)c2c1 [Example 121, acetic acid (2-{4-[3-chloro-4-(3-fluoro-benzyloxy)-phenylamino]-quinazolin-6-ylcarbamoyl}-ethylcarbamoyl)-methylester] | 69 | 616 | – | – |
| CN(C)CCOCC(=O)NCCC(=O)Nc1ccc2ncnc(Nc3ccc(OCc4cccc(F)c4)c(Cl)c3)c2c1 [Example 122, N-{4-[3-chloro-4-(3-fluoro-benzyloxy)-phenylamino]-quinazolin-6-yl}-3-[2-(2-dimethylamino-ethoxy)-acetylamino]-propionamide] | 85 | 617 | – | – |
| O=C(CCNC(=O)Nc1ccccc1)Nc1ccc2ncnc(Nc3ccc(OCc4cccc(F)c4)c(Cl)c3)c2c1 [Example 124, N-{4-[3-chloro-4-(3-fluoro-benzyloxy)-phenylamino]-quinazolin-6-yl}-3-(3-phenyl-ureido)-propionamide] | 107 | 584 | – | – |
| O=C(CCNC(=O)NCc1ccco1)Nc1ccc2ncnc(Nc3ccc(OCc4cccc(F)c4)c(Cl)c3)c2c1 [Example 125, N-{4-[3-chloro-4-(3-fluoro-benzyloxy)-phenylamino]-quinazolin-6-yl}-3-(3-furan-2-ylmethyl-ureido)-propionamide] | 83 | 272 | – | – |
| COC(=O)NCCC(=O)Nc1ccc2ncnc(Nc3ccc(OCc4cccc(F)c4)c(Cl)c3)c2c1 [Example 126, (2-{4-[3-chloro-4-(3-fluoro-benzyloxy)-phenylamino]-quinazolin-6-ylcarbamoyl}-ethyl)-carbamic acid methylester] | 91 | 99 | – | – |
| O=C(CCNC(=O)OCc1ccccc1)Nc1ccc2ncnc(Nc3ccc(OCc4cccc(F)c4)c(Cl)c3)c2c1 [Example 128, (2-{4-[3-chloro-4-(3-fluoro-benzyloxy)-phenylamino]-quinazolin-6-ylcarbamoyl}-ethyl)-carbamic acid benzylester] | 585 | 489 | – | – |
| COCC(=O)NCCC(=O)Nc1ccc2ncnc(Nc3ccc(OCc4ccccn4)c(Cl)c3)c2c1 [Example 129-2, N-{4-[3-chloro-4-(pyridin-2-ylmethoxy)-phenylamino]-quinazolin-6-yl}-3-(2-methoxy-acetylamino)-propionamide] | 345 | 490 | – | – |
| COCC(=O)NCCC(=O)Nc1ccc2ncnc(Nc3ccc(OCc4cccnc4)c(Cl)c3)c2c1 [Example 132-2, N-{4-[3-chloro-4-(pyridin-3-ylmethoxy)-phenylamino]-quinazolin-6-yl}-3-(2-methoxy-acetylamino)-propionamide] | 662 | 880 | – | – |
| CS(=O)(=O)CC(=O)NCCC(=O)Nc1ccc2ncnc(Nc3ccc(OCc4cccnc4)c(Cl)c3)c2c1 [Example 133, N-{4-[3-chloro-4-(pyridin-3-ylmethoxy)-phenylamino]-quinazolin-6-yl}-3-(2-methanesulfonyl-acetylamino)-propionamide] | 1110 | 7260 | – | – |
| C=CC(=O)NCCC(=O)Nc1ccc2ncnc(Nc3ccc(OCc4cccnc4)c(Cl)c3)c2c1 [Example 134, N-(2-{4-[3-chloro-4-(pyridin-3-ylmethoxy)-phenylamino]-quinazolin-6-ylcarbamoyl}-ethyl)-acrylamide] | 4 | 193 | – | – |
| COCCOCC(=O)NCCC(=O)Nc1ccc2ncnc(Nc3ccc(OCc4cccc(F)c4)c(Cl)c3)c2c1 [Example 135, N-{4-[3-chloro-4-(3-fluoro-benzyloxy)-phenylamino]-quinazolin-6-yl}-3-[2-(2-methoxy-ethoxy)-acetylamino]-propionamide] | 92 | 123 | – | – |
| Cc1oncc1C(=O)NCCC(=O)Nc1ccc2ncnc(Nc3ccc(OCc4cccc(F)c4)c(Cl)c3)c2c1 [Example 136] | – | – | 1710 | 828 |

Results, then the compound that gave them:

| IC50 (SK-Br3 (ATCC: HTB-30); Homo sapiens, SK-BR-3, 72 h) [nM] | IC50 (A431 (ATCC: CRL-1555); Homo sapiens, A-431, 72 h) [nM] | IC50 (SK-Br3 (ATCC: HTB-30); [1]) [nM] | IC50 (A431 (ATCC: CRL-1555); [2]) [nM] | SMILES |
| --- | --- | --- | --- | --- |
| – | – | 44 | 100 | CSCC(=O)NCCCC(=O)Nc1ccc2ncnc(Nc3ccc(OCc4cccc(F)c4)c(Cl)c3)c2c1 [Example 137, N-{4-[3-chloro-4-(3-fluoro-benzyloxy)phenylamino]-quinazolin-6-yl}-4-(2-methanesulfanyl-acetylamino)-butyramide] |
| 54 | 102 | – | – | C[S+]([O-])CC(=O)NCCCC(=O)Nc1ccc2ncnc(Nc3ccc(OCc4cccc(F)c4)c(Cl)c3)c2c1 (stereo not shown) [Example 138, N-{4-[3-chloro-4-(3-fluoro-benzyloxy)-phenylamino]-quinazolin-6-yl}-4-(2-methanesulfinyl-acetylamino)-butyramide] |
| 102 | 102 | – | – | C=CC(=O)NCCC(=O)N(CC)c1ccc2ncnc(Nc3ccc(OCc4cccc(F)c4)c(Cl)c3)c2c1 [Example 140, N-[2-({4-[3-chloro-4-(3-fluoro-benzyloxy)-phenylamino]-quinazolin-6-yl}-ethyl-carbamoyl)-ethyl]-acrylamide] |
| 804 | 1330 | – | – | C=CC(=O)NCCC(=O)N(CCCN(C)C)c1ccc2ncnc(Nc3ccc(OCc4cccc(F)c4)c(Cl)c3)c2c1 [Example 141-4, N-{2-[{4-[3-chloro-4-(3-fluoro-benzyloxy)-phenylamino]-quinazolin-6-yl}-(3-dimethylamino-propyl)-carbamoyl]-ethyl}-acrylamide] |
| 8 | 73 | – | – | C=CC(=O)NCCC(=O)Nc1ccc2ncnc(Nc3ccc(OCc4cccc(C)n4)c(Cl)c3)c2c1 [Example 144, N-(2-{4-[3-chloro-4-(6-methyl-pyridin-2-ylmethoxy)-phenylamino]-quinazolin-6-ylcarbamoyl}-ethyl)-acrylamide] |
| 4 | 34 | – | – | C=CC(=O)N1C[C@H](OC(C)=O)C[C@H]1C(=O)Nc1ccc2ncnc(Nc3ccc(OCc4ccccn4)c(Cl)c3)c2c1 [Example 148, (3R,5S)-acetic acid 1-acryloyl-5-{4-[3-chloro-4-(pyridin-2-ylmethoxy)-phenylamino]-quinazolin-6-ylcarbamoyl}-pyrrolidin-3-ylester] |
| 2 | 54 | – | – | C=CC(=O)N1C[C@H](O)C[C@H]1C(=O)Nc1ccc2ncnc(Nc3ccc(OCc4ccccn4)c(Cl)c3)c2c1 [Example 149, (2S,4R)-1-acryloyl-4-hydroxyl-pyrrolidine-2-carboxylic acid {4-[3-chloro-4-(pyridin-2-ylmethoxy)-phenylamino]-quinazolin-6-yl}-amide] |
| 6 | 36 | – | – | C=CC(=O)N1C[C@H](SCC)C[C@H]1C(=O)Nc1ccc2ncnc(Nc3ccc(OCc4ccccn4)c(Cl)c3)c2c1 [Example 150, (2S,4R)-1-acryloyl-4-ethylsulfanyl-pyrrolidine-2-carboxylic acid {4-[3-chloro-4-(pyridin-2-ylmethoxy)-phenylamino]-quinazolin-6-yl}-amide] |
| 3 | 105 | – | – | C=CC(=O)N1C[C@H](N(C)C)C[C@H]1C(=O)Nc1ccc2ncnc(Nc3ccc(OCc4ccccn4)c(Cl)c3)c2c1 [Example 151, (2S,4R)-1-acryloyl-4-dimethylamino-pyrrolidine-2-carboxylic acid {4-[3-chloro-4-(pyridin-2-ylmethoxy)-phenylamino]-quinazolin-6-yl}-amide] |
| 4 | 166 | – | – | C=CC(=O)N1CCC[C@H]1C(=O)Nc1ccc2ncnc(Nc3ccc(OCc4cccnc4)c(Cl)c3)c2c1 [Example 152, (2S)-1-acryloyl-pyrrolidine-2-carboxylic acid {4-[3-chloro-4-(pyridin-3-ylmethoxy)-phenylamino]-quinazolin-6-yl}-amide] |
| 29 | 394 | – | – | C=CC(=O)N1CCC[C@H]1C(=O)Nc1ccc2ncnc(Nc3ccc(OCc4ccncc4)c(Cl)c3)c2c1 [Example 153, (2S)-1-acryloyl-pyrrolidine-2-carboxylic acid {4-[3-chloro-4-(pyridin-4-ylmethoxy)-phenylamino]-quinazolin-6-yl}-amide] |
| 5 | 86 | – | – | C=CC(=O)N1CCCC1CC(=O)Nc1ccc2ncnc(Nc3ccc(OCc4ccccn4)c(Cl)c3)c2c1 (stereo not shown) [Example 154, 2-(1-acryloyl-pyrrolidin-2-yl)-N-{4-[3-chloro-4-(pyridin-2-ylmethoxy)-phenylamino]-quinazolin-6-yl}-acetamide] |
| 12 | – | – | 350 | C=CC(=O)N1CCC(C(=O)Nc2ccc3ncnc(Nc4ccc(OCc5ccccn5)c(Cl)c4)c3c2)C1 (stereo not shown) [Example 155, 1-acryloyl-pyrrolidine-3-carboxylic acid {4-[3-chloro-4-(pyridin-2-ylmethoxy)-phenylamino]-quinazolin-6-yl}-amide] |
